Results: paper PMC9864769, “Identification of Lignan Compounds as New 6-Phosphogluconate Dehydrogenase Inhibitors for Lung Cancer” (Metabolites, 2022)

Molecular target: T1, 6-phosphogluconate dehydrogenase (6-PGD) (Homo sapiens, UniProt P52209)
T1 construct: native enzyme purified from human erythrocytes
T1 sequence (P52209 1-483): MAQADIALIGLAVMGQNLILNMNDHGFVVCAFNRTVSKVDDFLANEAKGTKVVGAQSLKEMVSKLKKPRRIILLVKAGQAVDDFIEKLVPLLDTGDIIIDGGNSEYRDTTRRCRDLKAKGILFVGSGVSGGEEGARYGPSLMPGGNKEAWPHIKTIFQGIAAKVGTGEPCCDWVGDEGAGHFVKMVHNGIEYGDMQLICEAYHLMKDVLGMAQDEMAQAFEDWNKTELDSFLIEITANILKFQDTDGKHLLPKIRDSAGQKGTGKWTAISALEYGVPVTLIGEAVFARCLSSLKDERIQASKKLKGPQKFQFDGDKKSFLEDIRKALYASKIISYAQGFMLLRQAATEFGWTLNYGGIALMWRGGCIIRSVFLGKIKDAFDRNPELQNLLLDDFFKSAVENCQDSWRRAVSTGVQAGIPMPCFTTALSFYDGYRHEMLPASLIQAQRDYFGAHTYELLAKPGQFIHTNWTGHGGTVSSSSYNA
Assay: enzyme activity assay (NADPH absorbance at […] nm) on 6-PGD purified from human erythrocytes; also A549 lysate assay
Type: biochemical
Conditions: read-out: % reduction of activity at 200 μg/mL

| inhibition at 200 µg/mL [%] | SMILES |
| --- | --- |
| 76.3 | COc1cc([C@H]2OC[C@H]3[C@@H]2CO[C@@H]3c2cc(OC)c(O)c(OC)c2)cc(OC)c1O [syringaresinol] |
| 70 | COc1cc([C@H]2Oc3c(OC)cc4ccc(=O)oc4c3O[C@@H]2CO)ccc1O [cleomiscosin A] |
